How the values were obtained:
Conditions in all cases: 72 h
Calu-3 [1] = assay: cell viability relative to DMSO; higher = less toxic
Caco-2 [2] = assay: as above
HepG2 [3] = assay: as above
U2OS [4] = assay: as above
Calu-3 [5] = assay: relative viability EC50 (midpoint between 100% and the lowest measured viability); higher = less toxic
Caco-2 [6] = assay: as above
HepG2 [7] = assay: as above
U2OS [8] = assay: as above
Calu-3 [9] = assay: drug sensitivity score (DSS) for viability; higher = more toxic; extreme values may be limits of the assay
Caco-2 [10] = assay: as above
HepG2 [11] = assay: as above
U2OS [12] = assay: as above
Vero E6 [13] = assay: cell viability relative to DMSO; higher = less toxic
Vero E6 [14] = assay: relative viability EC50 (midpoint between 100% and the lowest measured viability); higher = less toxic
Vero E6 [15] = assay: drug sensitivity score (DSS) for viability; higher = more toxic; extreme values may be limits of the assay

Compound	cell viability (Calu-3 [1]; 1 nM)	cell viability (Calu-3 [1]; 10 nM)	cell viability (Calu-3 [1]; 100 nM)	cell viability (Calu-3 [1]; 1000 nM)	cell viability (Calu-3 [1]; 10000 nM)	cell viability (Caco-2 [2]; 1 nM)	cell viability (Caco-2 [2]; 10 nM)	cell viability (Caco-2 [2]; 100 nM)	cell viability (Caco-2 [2]; 1000 nM)	cell viability (Caco-2 [2]; 10000 nM)	cell viability (HepG2 [3]; 1 nM)	cell viability (HepG2 [3]; 10 nM)	cell viability (HepG2 [3]; 100 nM)	cell viability (HepG2 [3]; 1000 nM)	cell viability (HepG2 [3]; 10000 nM)	cell viability (U2OS [4]; 1 nM)	cell viability (U2OS [4]; 10 nM)	cell viability (U2OS [4]; 100 nM)	cell viability (U2OS [4]; 1000 nM)	cell viability (U2OS [4]; 10000 nM)	relative viability EC50 (Calu-3 [5])	relative viability EC50 (Caco-2 [6])	relative viability EC50 (HepG2 [7])	relative viability EC50 (U2OS [8])	drug sensitivity score (Calu-3 [9])	drug sensitivity score (Caco-2 [10])	drug sensitivity score (HepG2 [11])	drug sensitivity score (U2OS [12])	cell viability (Vero E6 [13]; 1 nM)	cell viability (Vero E6 [13]; 10 nM)	cell viability (Vero E6 [13]; 100 nM)	cell viability (Vero E6 [13]; 1000 nM)	cell viability (Vero E6 [13]; 10000 nM)	relative viability EC50 (Vero E6 [14])	drug sensitivity score (Vero E6 [15])
CN[C@@H](C)[C@H]1[C@H](O)C[C@@]2(C)[C@@H]3CC[C@H]4C(C)(C)[C@@H](NC)CC[C@@]45C[C@@]35CC[C@]12C [cyclovirobuxin-D]	102%	94.7%	98.6%	99.2%	102%	101%	92.1%	91.2%	90.1%	90.6%	96.3%	99.5%	91.5%	99%	99.1%	101%	96.3%	99.4%	99.8%	97.6%	> 10 µM	> 10 µM	> 10 µM	> 10 µM	0	0	0	0	–	–	–	–	–	–	–
CC1(C)CC(Oc2ccc(-c3ccc(-c4cn[nH]c4)cc3O)nn2)CC(C)(C)N1 [LMI070]	96.7%	97.1%	92.7%	74.5%	85.4%	95.1%	108%	106%	94.6%	72.5%	107%	104%	110%	51.8%	12.4%	96.4%	102%	103%	93.5%	6.6%	–	–	0.926 µM	2.6 µM	2.9	2	10.7	6.2	101%	102%	104%	48.5%	5.1%	0.935 µM	11.5
COC(=O)C1=C(C)NC(C)=C(C(=O)OC(C)C)[C@@H]1c1cccc2nonc12 [isradipine]	101%	98.9%	91.7%	97.9%	95.2%	107%	96.2%	99.3%	93.5%	94.2%	98.9%	103%	105%	106%	95.9%	103%	97.9%	104%	102%	98.5%	> 10 µM	> 10 µM	> 10 µM	> 10 µM	0	0	0	0	–	–	–	–	–	–	–
C=C(C)[C@H]1CN[C@H](C(=O)O)[C@H]1CC(=O)O [kainic-acid]	93.4%	88.2%	93.5%	90.3%	98.3%	97.5%	95.7%	96.7%	104%	96.8%	106%	105%	110%	102%	93.7%	99.7%	99.4%	101%	99.8%	95.6%	> 10 µM	> 10 µM	> 10 µM	> 10 µM	0	0	0	0	–	–	–	–	–	–	–
CN1CCN(c2cccc3[nH]c(=O)oc23)CC1 [pardoprunox]	95.8%	93.2%	102%	107%	99.1%	102%	101%	96.4%	90.6%	100%	90.7%	105%	89.1%	99.2%	97.3%	106%	99.3%	102%	95.3%	101%	> 10 µM	> 10 µM	> 10 µM	> 10 µM	0	0	0	0	–	–	–	–	–	–	–
COc1ccccc1OCCNCC(O)COc1cccc2[nH]c3ccccc3c12 (stereo not given) [carvedilol]	97%	92.2%	102%	89.2%	97.4%	–	–	–	–	–	99.3%	108%	88.7%	100%	86.6%	96.4%	100%	103%	93.1%	92.3%	> 10 µM	–	> 10 µM	> 10 µM	0	–	0.1	0	100%	102%	94.2%	107%	94.7%	> 10 µM	0
O=C(O)COc1ccc(/C=C2\SC(=O)NC2=O)cc1 [TCS-3035]	101%	97.6%	97.3%	103%	106%	105%	107%	97.3%	104%	102%	103%	104%	103%	105%	95.3%	102%	94.9%	97.8%	99.8%	100%	> 10 µM	> 10 µM	> 10 µM	> 10 µM	0	0	0	0	–	–	–	–	–	–	–
O=C(NCC(=O)N1CCCC1)Nc1ccc2cnccc2c1 [SGC-707]	94.2%	95.8%	105%	86.2%	110%	98.1%	97%	95.7%	100%	93.1%	93.6%	117%	98.4%	103%	97.3%	99.2%	93%	103%	97.3%	96.8%	> 10 µM	> 10 µM	> 10 µM	> 10 µM	0	0	0	0	–	–	–	–	–	–	–
CN1C(=O)CC[C@H]1c1cccnc1 [cotinine]	–	–	–	–	–	71.1%	74.2%	84.3%	83%	106%	104%	99.4%	106%	105%	96.2%	94.7%	97.2%	92.9%	95.7%	102%	–	–	> 10 µM	> 10 µM	–	5.4	0	0	95.9%	92.8%	94%	95.7%	106%	> 10 µM	0
CC(=O)Oc1ccccc1C(=O)Nc1ncc([N+](=O)[O-])s1 [nitazoxanide]	102%	103%	107%	99.1%	98.8%	97.3%	98.8%	102%	104%	61.7%	97.1%	95.6%	94.5%	91%	65.3%	99.2%	98.5%	101%	93.3%	91.4%	> 10 µM	–	–	> 10 µM	0	1.6	2.8	0	98.2%	98.7%	106%	102%	96.9%	> 10 µM	0
NC(=O)[C@@H](CC1CC1)[C@@H](CCC(F)(F)F)C(=O)N[C@H]1N=C(c2ccccc2)c2cccc(F)c2NC1=O	110%	99.4%	91.9%	85.8%	99.1%	97.7%	98.4%	96.5%	96.2%	85.2%	94.3%	106%	105%	91.9%	106%	99%	96.4%	94.1%	94.1%	92.7%	> 10 µM	> 10 µM	> 10 µM	> 10 µM	0	0.4	0	0	–	–	–	–	–	–	–
O=C(O)[C@@H]1C[C@@H](C2CCCCC2)CN1C(=O)CP(=O)(O)CCCCc1ccccc1 [fosinoprilat]	99.4%	98.8%	98.4%	95.1%	108%	97.6%	88.5%	105%	90.4%	102%	105%	104%	96.2%	101%	101%	99.6%	93.7%	97.5%	95%	97.1%	> 10 µM	> 10 µM	> 10 µM	> 10 µM	0	0	0	0	–	–	–	–	–	–	–
COc1cc2c(cc1OC)CN(C(=O)/C=C/c1c(-c3ccccc3)n(C)c3ncccc13)CC2 [SIS3]	–	–	–	–	–	93.9%	94.5%	88.8%	96.5%	71.1%	98.9%	106%	106%	106%	106%	99%	101%	94.9%	99.9%	96.2%	–	–	> 10 µM	> 10 µM	–	1.8	0	0	100%	93.3%	98.8%	98.2%	100%	> 10 µM	0
CC(C)(C(=O)NCC(F)(F)C(F)(F)F)C(=O)N[C@@H]1C(=O)Nc2ccccc2-c2ccccc21 [RG4733]	102%	108%	112%	98.6%	93.9%	94.4%	92.3%	97.8%	89.8%	82.2%	102%	111%	101%	102%	92.1%	96.9%	99.1%	99.6%	94.4%	97.3%	> 10 µM	> 10 µM	> 10 µM	> 10 µM	0	0.6	0	0	–	–	–	–	–	–	–
NC1(C(=O)N[C@@H](CCO)c2ccc(Cl)cc2)CCN(c2ncnc3[nH]ccc23)CC1 [AZD5363]	113%	101%	102%	85.6%	75.6%	100%	102%	93.3%	74.8%	54.6%	99.3%	101%	93.8%	84.8%	66.6%	97.4%	94.7%	92.5%	90.9%	57.5%	> 10 µM	–	–	–	2.5	5.3	3	3.6	98.7%	99.9%	96.4%	94.8%	90.8%	> 10 µM	0
CN1[C@@H]2CC[C@H]1C[C@@H](OC(=O)[C@H](CO)c1ccccc1)C2 [hyoscyamine]	103%	91.6%	99.9%	97.2%	99.4%	103%	99.8%	95%	94.2%	89.6%	111%	98.2%	106%	89.3%	104%	98.9%	101%	97.8%	101%	99.9%	> 10 µM	> 10 µM	> 10 µM	> 10 µM	0	0	0	0	–	–	–	–	–	–	–

Reference: the supplement of paper PMC13380429
